The values that follow come from patent US12195482B1 (Arcus Biosciences, Inc., priority 2022, dated 2025).

The target in one assay is T1, p-AXL (Homo sapiens, UniProt P30530).
T1 construct: expressed in transfected cells; host or cells: HEK293T
T1 sequence (P30530 26-894): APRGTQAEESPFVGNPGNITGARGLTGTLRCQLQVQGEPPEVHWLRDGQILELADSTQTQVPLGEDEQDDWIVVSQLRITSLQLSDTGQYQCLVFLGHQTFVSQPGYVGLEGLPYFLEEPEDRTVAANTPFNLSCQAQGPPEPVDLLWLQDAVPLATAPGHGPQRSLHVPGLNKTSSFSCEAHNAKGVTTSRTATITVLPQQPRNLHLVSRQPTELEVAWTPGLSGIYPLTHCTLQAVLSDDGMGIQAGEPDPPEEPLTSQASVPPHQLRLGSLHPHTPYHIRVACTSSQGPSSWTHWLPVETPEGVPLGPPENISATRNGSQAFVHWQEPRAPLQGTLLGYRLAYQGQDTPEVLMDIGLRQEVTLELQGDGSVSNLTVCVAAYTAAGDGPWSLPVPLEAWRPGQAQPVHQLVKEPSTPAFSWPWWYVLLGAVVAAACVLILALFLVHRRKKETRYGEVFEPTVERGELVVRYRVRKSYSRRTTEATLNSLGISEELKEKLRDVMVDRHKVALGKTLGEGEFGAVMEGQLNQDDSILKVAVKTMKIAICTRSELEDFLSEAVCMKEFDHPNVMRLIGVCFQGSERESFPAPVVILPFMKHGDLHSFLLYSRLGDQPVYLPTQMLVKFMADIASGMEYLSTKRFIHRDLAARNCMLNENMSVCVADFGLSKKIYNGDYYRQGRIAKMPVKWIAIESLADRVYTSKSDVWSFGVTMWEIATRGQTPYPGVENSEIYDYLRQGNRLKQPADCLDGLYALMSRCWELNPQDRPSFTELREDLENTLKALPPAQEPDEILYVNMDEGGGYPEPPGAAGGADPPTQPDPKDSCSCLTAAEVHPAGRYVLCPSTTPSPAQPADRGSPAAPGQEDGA
In words: Axl phosphorylation inhibition ELISA in HEK293T cells transfected with NanoLuc-tagged AXL. The format is cell-based. The settings on record: 1 h compound incubation, media (OptiMEM). A digest of the protocol:
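HEK293T cells transiently transfected one day earlier with NanoLuc-tagged AXL were exposed to 22-point 2-fold compound dilutions for 1 h at 37° C (70,000 cells/well), then lysed. Lysates captured on anti-phospho-tyrosine coated plates for 2 h; bound p-AXL read by NanoLuc luminescence; IC50 from 4-parameter logistic fit.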
On the technique in general: In an ELISA, binding on a coated surface is turned into a signal by an enzyme label.

A further assay deals with T2, Axl (Homo sapiens, UniProt P30530).
T2 sequence (P30530 26-894): T1 sequence (P30530 26-894)
In words: Biochemical potency, HTRF KinEASE-TK kinase assay. The settings on record: 5 nM AXL, 700 μM ATP. Also on record: purchased Invitrogen. An outline of the steps: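 Enzyme (AXL 5 nM; TYRO3 or MER 1 nM final) was preincubated with compound for 1 h at RT, then reacted for 2 h at RT with 800 nM biotinylated TK substrate and 700 µM ATP in HEPES pH 7.4, MgCl2, DTT, BSA, 1% DMSO. Percent activity came from the HTRF 665/620 ratio.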
On the technique in general: In TR-FRET formats the signal depends on donor and acceptor labels being close together.

Structures are written as SMILES. Bounds are passed on as bounds.

For orientation: IC50 means the concentration that gives 50% inhibition. Low readings indicate greater potency in that assay, high ones weaker potency in that assay. For `c1cnc(-c2ccc(-c3n[nH]c4ncc(-c5ccc6c(c5)CC[C@@H](N5C7COCC5C7)CC6)cc34)cc2)c(O[C@@H]2CCOC2)c1` [Example 104, 6-[(7S)-2-[3-(4-{3-[(3R)—Oxolan-3-yloxy]pyridin-2-yl}phenyl)-1H-pyrazolo[3,4-b]pyridin-5-yl]-6,7,8,9-tetrahydro-5H-benzo[7]annulen-7-yl]-3-oxa-6-azabicyclo[3.1.1]heptane], the IC50 at p-AXL and against Axl was less than 100 nM each time.
As for `Cc1cccnc1-c1ccc(-c2c[nH]c3ncc(-c4ccc5c(c4)CC[C@@H](N[C@H]4CCCOC4)CC5)cc23)cc1` [Example 186, (3S)—N-[(7S)-2-{3-[4-(3-Methylpyridin-2-yl)phenyl]-1H-pyrrolo[2,3-b]pyridin-5-yl}-6,7,8,9-tetrahydro-5H-benzo[7]annulen-7-yl]oxan-3-amine], the values for the IC50 on p-AXL and against Axl were 100 to 1000 nM and less than 100 nM, respectively.
Take `Cc1cccnc1-c1ccc(-c2n[nH]c3ncc(-c4ccc5c(c4)CC[C@@](C)(N4CCC[C@H]4C)CC5)cc23)nc1` [Example 105, 3-Methyl-6′-{5-[(7S)-7-methyl-7-[(2R)-2-methylpyrrolidin-1-yl]-6,7,8,9-tetrahydro-5H-benzo[7]annulen-2-yl]-1H-pyrazolo[3,4-b]pyridin-3-yl}-2,3′-bipyridine]: the IC50 at p-AXL and at Axl was less than 100 nM throughout.
As to `Cc1cccnc1-c1ccc(-c2n[nH]c3ncc(-c4ccc5c(c4)CC[C@@H](N4C6COCC4C6)CC5)cc23)nc1` [Example 26, 3-Methyl-6′-{5-[(7S)-7-{3-oxa-6-azabicyclo[3.1.1]heptan-6-yl}-6,7,8,9-tetrahydro-5H-benzo[7]annulen-2-yl]-1H-pyrazolo[3,4-b]pyridin-3-yl}-2,3′-bipyridine], the IC50 against p-AXL and against Axl was less than 100 nM each time.
On to `CC(C)(O)c1ccccc1-c1ccc(-c2n[nH]c3ncc(-c4ccc5c(c4)CC[C@@H](N4C6COCC4C6)CC5)cc23)cn1` [Example 113, 2-[2-(5-{5-[(7S)-7-{3-Oxa-6-azabicyclo[3.1.1]heptan-6-yl}-6,7,8,9-tetrahydro-5H-benzo[7]annulen-2-yl]-1H-pyrazolo[3,4-b]pyridin-3-yl}pyridin-2-yl)phenyl]propan-2-ol], for which the IC50 against p-AXL and against Axl was less than 100 nM in each case.
For the compound `c1ccc(-c2ccc(-c3c[nH]c4ncc(-c5ccc6c(c5)CC[C@@H](N[C@H]5CCCOC5)CC6)cc34)cc2)nc1` [Example 32, (3S)—N-[(7S)-3-[3-(4-Pyridin-2-ylphenyl)-1H-pyrrolo[2,3-b]pyridin-5-yl]-6,7,8,9-tetrahydro-5H-benzo[7]annulen-7-yl]oxan-3-amine], the IC50 against p-AXL is 100 to 1000 nM; against Axl, less than 100 nM.
The like results for `c1ccc(-c2ccc(-c3c[nH]c4ncc(-c5ccc6c(c5)CC[C@@H](N5C7COCC5C7)CC6)cc34)cc2)nc1` [Example 155, 6-[(7S)-2-{3-[4-(Pyridin-2-yl)phenyl]-1H-pyrrolo[2,3-b]pyridin-5-yl}-6,7,8,9-tetrahydro-5H-benzo[7]annulen-7-yl]-3-oxa-6-azabicyclo[3.1.1]heptane] were, in that order, 100 to 1000 nM and less than 100 nM.
With `Cc1cccnc1-c1ccc(-c2n[nH]c3ncc(-c4ccc5c(c4)CC[C@@](C)(N4CCC[C@H]4C)CC5)cc23)cc1` [Example 163, 3-Methyl-2-(4-{5-[(7S)-7-methyl-7-[(2R)-2-methylpyrrolidin-1-yl]-6,7,8,9-tetrahydro-5H-benzo[7]annulen-2-yl]-2H-pyrazolo[3,4-b]pyridin-3-yl}phenyl)pyridine], the half-maximal inhibitory concentration (IC50) at p-AXL and on Axl was less than 100 nM in each case.
Take `C[C@@H]1COC(=O)N1c1cccnc1-c1ccc(-c2n[nH]c3ncc(-c4ccc5c(c4)CC[C@@H](N4C6COCC4C6)CC5)cc23)cc1` [Example 124, (4R)-4-Methyl-3-[2-(4-{5-[(7S)-7-{3-oxa-6-azabicyclo[3.1.1]heptan-6-yl}-6,7,8,9-tetrahydro-5H-benzo[7]annulen-2-yl]-1H-pyrazolo[3,4-b]pyridin-3-yl}phenyl)pyridin-3-yl]-1,3-oxazolidin-2-one]: the concentration for half-maximal inhibition (IC50) on p-AXL and against Axl was less than 100 nM throughout.
Turning to `Cc1cc(-c2ncccc2C)ccc1-c1n[nH]c2ncc(-c3ccc4c(c3)CC[C@@H](N3C5COCC3C5)CC4)cc12` [Example 30, 6-[(7S)-3-[3-[2-Methyl-4-(3-methylpyridin-2-yl)phenyl]-1H-pyrazolo[3,4-b]pyridin-5-yl]-6,7,8,9-tetrahydro-5H-benzo[7]annulen-7-yl]-3-oxa-6-azabicyclo[3.1.1]heptane], the results for the IC50 at p-AXL and at Axl were 100 to 1000 nM and more than 1000 nM, respectively.
As for `Cc1ncc(C)c(-c2ccc(-c3n[nH]c4ncc(-c5ccc6c(c5)CC[C@@H](N5C7COCC5C7)CC6)cc34)cc2)n1` [Example 122, 6-[(7S)-2-{3-[4-(2,5-Dimethylpyrimidin-4-yl)phenyl]-1H-pyrazolo[3,4-b]pyridin-5-yl}-6,7,8,9-tetrahydro-5H-benzo[7]annulen-7-yl]-3-oxa-6-azabicyclo[3.1.1]heptane], the IC50 at p-AXL and on Axl was less than 100 nM in each case.
For the compound `c1ccc(-n2cc(-c3n[nH]c4ncc(-c5ccc6c(c5)CC[C@@H](N5C7COCC5C7)CC6)cc34)cn2)nc1` [Example 168, 6-[(7S)-2-{3-[1-(Pyridin-2-yl)-1H-pyrazol-4-yl]-1H-pyrazolo[3,4-b]pyridin-5-yl}-6,7,8,9-tetrahydro-5H-benzo[7]annulen-7-yl]-3-oxa-6-azabicyclo[3.1.1]heptane], the IC50 against p-AXL is 100 to 1000 nM; at Axl, less than 100 nM.
